# Experimental data taken from US20100267637A1, “TREATMENT OF MELANOMA WITH ALPHA THYMOSIN PEPTIDES IN COMBINATION WITH A KINASE INHIBITOR” (SciClone Pharmaceuticals, Inc., priority 2007, published 2010).
# System: murine B16 melanoma cells
# Experiment: Anti-tumor effect: tumor size / tumor volume in mice bearing subcutaneous B16 melanoma
# Assay type: in vivo, C57BL/6 mice
# Set-up: key to Tumor measurement L (length) / Tumor measurement W (width): The sign “—” indicates that tumor does not reach a measurable size
# Details: for Tumor Volume (cm^3) (Mean ± SD): group mean; for PI (TV), percent inhibition of tumor volume: vs vehicle; for Tumor volumes on Day 15: Length × Width × Width/2
# Description: The toxic effects of the dosing regimens were also monitored. […] Meanwhile 9H10 was given in two groups via i.p. on Day 3, 6 and 9. […] Tumor volume and body weight were measured every three days, and tumor weights were measured on Day 16 at the end of the study.
# As per aseptic tissue culture procedures, one vial of B16 melanoma cells was removed from the liquid nitrogen stock, and placed into a 37° C. water bath. Gentle swirling was conducted until the content of the vial was thawed. Using tissue culture/sterile procedures, the cells were immediately centrifuged with a TD5A-WS centrifuge at 1000 rpm, 20-25° C., 5 min. After centrifugation, the cells were suspended in 0.1 to 0.5 mL normal saline (NS) and subcutaneously injected into 10 mice (0.1 mL/mouse, about 1×10^6 cells). After 7-10 days, when the tumor diameter was approximately 1 cm, the animals were euthanized with CO2 overdose and the tumors excised. The procedure was repeated with 20 mice to generate a sufficient number of B16 melanoma cells with adequate transplantability.
# On the day of tumor implantation, approximately 1×10^6 cells in 0.1 mL were subcutaneously injected on the right axillary area of each mouse. The day of tumor implantation was defined as Day 0.
# On Day 3, the animals were randomly assigned into nine different weight-matched and tumor-size-matched groups. Dosing was started on Day 3 using the regimen according to Table 2.
# From Day 1 to Day 15, mortality and moribundity were checked twice daily, the body weights were recorded once every 3 days, and tumors were measured using a caliper once every 3 days. At the end of the study (Day 16), the animals were euthanized by CO2 asphyxiation, and the tumors were excised and weighed.
# Based on the tumor size, the tumor volume (TV) was calculated with the formula: [TV=(Length×Width×Width)/2]. And the percent inhibition (PI) of TV (PITV) was calculated according to the equation below:
# PITV(%)=(TV vehicle−TVdrug treated)/TV vehicle×100
# Inter-group comparison was performed in terms of tumor volume, tumor weight and body weight, using a student's t test. P values of less than 0.05 were considered to be statistically significant.
structure (smiles),measurement,setting,value
"CN(C)/N=N/c1[nH]cnc1C(N)=O [DTIC, Dacarbazine]",Tumor measurement L (length),"Day 3, animal F1",—
same,Tumor measurement W (width),"Day 3, animal F1",—
same,Tumor volume,"Day 3, animal F1",0.0000 cm^3
same,Tumor measurement L (length),"Day 3, animal F2",—
same,Tumor measurement W (width),"Day 3, animal F2",—
same,Tumor volume,"Day 3, animal F2",0.0000 cm^3
same,Tumor measurement L (length),"Day 3, animal F3",0.20 cm
same,Tumor measurement W (width),"Day 3, animal F3",0.20 cm
same,Tumor volume,"Day 3, animal F3",0.0040 cm^3
same,Tumor measurement L (length),"Day 3, animal F4",—
same,Tumor measurement W (width),"Day 3, animal F4",—
same,Tumor volume,"Day 3, animal F4",0.0000 cm^3
same,Tumor measurement L (length),"Day 3, animal F5",—
same,Tumor measurement W (width),"Day 3, animal F5",—
same,Tumor volume,"Day 3, animal F5",0.0000 cm^3
same,Tumor measurement L (length),"Day 3, animal M1",—
same,Tumor measurement W (width),"Day 3, animal M1",—
same,Tumor volume,"Day 3, animal M1",0.0000 cm^3
same,Tumor measurement L (length),"Day 3, animal M2",0.10 cm
same,Tumor measurement W (width),"Day 3, animal M2",0.10 cm
same,Tumor volume,"Day 3, animal M2",0.0005 cm^3
same,Tumor measurement L (length),"Day 3, animal M3",—
same,Tumor measurement W (width),"Day 3, animal M3",—
same,Tumor volume,"Day 3, animal M3",0.0000 cm^3
same,Tumor measurement L (length),"Day 3, animal M4",—
same,Tumor measurement W (width),"Day 3, animal M4",—
same,Tumor volume,"Day 3, animal M4",0.0000 cm^3
same,Tumor measurement L (length),"Day 3, animal M5",0.10 cm
same,Tumor measurement W (width),"Day 3, animal M5",0.10 cm
same,Tumor volume,"Day 3, animal M5",0.0005 cm^3
same,Tumor Volume (cm^3) (Mean ± SD),Day 3,0.001 ± 0.0012 cm^3
same,"PI (TV), percent inhibition of tumor volume",Day 3,−400.00%
same,Tumor measurement L (length),"Day 6, animal F1",—
same,Tumor measurement W (width),"Day 6, animal F1",—
same,Tumor volume,"Day 6, animal F1",0.0000 cm^3
same,Tumor measurement L (length),"Day 6, animal F2",—
same,Tumor measurement W (width),"Day 6, animal F2",—
same,Tumor volume,"Day 6, animal F2",0.0000 cm^3
same,Tumor measurement L (length),"Day 6, animal F3",0.10 cm
same,Tumor measurement W (width),"Day 6, animal F3",0.10 cm
same,Tumor volume,"Day 6, animal F3",0.0005 cm^3
same,Tumor measurement L (length),"Day 6, animal F4",—
same,Tumor measurement W (width),"Day 6, animal F4",—
same,Tumor volume,"Day 6, animal F4",0.0000 cm^3
same,Tumor measurement L (length),"Day 6, animal F5",—
same,Tumor measurement W (width),"Day 6, animal F5",—
same,Tumor volume,"Day 6, animal F5",0.0000 cm^3
same,Tumor measurement L (length),"Day 6, animal M1",—
same,Tumor measurement W (width),"Day 6, animal M1",—
same,Tumor volume,"Day 6, animal M1",0.0000 cm^3
same,Tumor measurement L (length),"Day 6, animal M2",—
same,Tumor measurement W (width),"Day 6, animal M2",—
same,Tumor volume,"Day 6, animal M2",0.0000 cm^3
same,Tumor measurement L (length),"Day 6, animal M3",—
same,Tumor measurement W (width),"Day 6, animal M3",—
same,Tumor volume,"Day 6, animal M3",0.0000 cm^3
same,Tumor measurement L (length),"Day 6, animal M4",—
same,Tumor measurement W (width),"Day 6, animal M4",—
same,Tumor volume,"Day 6, animal M4",0.0000 cm^3
same,Tumor measurement L (length),"Day 6, animal M5",—
same,Tumor measurement W (width),"Day 6, animal M5",—
same,Tumor volume,"Day 6, animal M5",0.0000 cm^3
same,Tumor Volume (cm^3) (Mean ± SD),Day 6,0.000 ± 0.0002 cm^3
same,"PI (TV), percent inhibition of tumor volume",Day 6,90.91%
same,Tumor measurement L (length),"Day 9, animal F1",0.20 cm
same,Tumor measurement W (width),"Day 9, animal F1",0.20 cm
same,Tumor volume,"Day 9, animal F1",0.0040 cm^3
same,Tumor volume,"Day 9, animal F2",0.0000 cm^3
same,Tumor measurement L (length),"Day 9, animal F3",0.10 cm
same,Tumor measurement W (width),"Day 9, animal F3",0.10 cm
same,Tumor volume,"Day 9, animal F3",0.0005 cm^3
same,Tumor measurement L (length),"Day 9, animal F4",0.10 cm
same,Tumor measurement W (width),"Day 9, animal F4",0.10 cm
same,Tumor volume,"Day 9, animal F4",0.0005 cm^3
same,Tumor measurement L (length),"Day 9, animal F5",0.10 cm
same,Tumor measurement W (width),"Day 9, animal F5",0.10 cm
same,Tumor volume,"Day 9, animal F5",0.0005 cm^3
same,Tumor measurement L (length),"Day 9, animal M1",0.30 cm
same,Tumor measurement W (width),"Day 9, animal M1",0.30 cm
same,Tumor volume,"Day 9, animal M1",0.0135 cm^3
same,Tumor measurement L (length),"Day 9, animal M2",0.30 cm
same,Tumor measurement W (width),"Day 9, animal M2",0.30 cm
same,Tumor volume,"Day 9, animal M2",0.0135 cm^3
same,Tumor measurement L (length),"Day 9, animal M3",0.30 cm
same,Tumor measurement W (width),"Day 9, animal M3",0.30 cm
same,Tumor volume,"Day 9, animal M3",0.0135 cm^3
same,Tumor measurement L (length),"Day 9, animal M4",0.30 cm
same,Tumor measurement W (width),"Day 9, animal M4",0.30 cm
same,Tumor volume,"Day 9, animal M4",0.0135 cm^3
same,Tumor measurement L (length),"Day 9, animal M5",0.10 cm
same,Tumor measurement W (width),"Day 9, animal M5",0.10 cm
same,Tumor volume,"Day 9, animal M5",0.0005 cm^3
same,Tumor Volume (cm^3) (Mean ± SD),Day 9,0.006 ± 0.0065 cm^3
same,"PI (TV), percent inhibition of tumor volume",Day 9,71.15%
same,Tumor volume,"Day 12, animal F1",0.0625 cm^3
same,"Tumor measurements on Day 12, L","Day 12, animal F1",0.50 cm
same,"Tumor measurements on Day 12, W","Day 12, animal F1",0.50 cm
same,Tumor volume,"Day 12, animal F2",0.0135 cm^3
same,"Tumor measurements on Day 12, L","Day 12, animal F2",0.30 cm
same,"Tumor measurements on Day 12, W","Day 12, animal F2",0.30 cm
same,Tumor volume,"Day 12, animal F3",0.0135 cm^3
same,"Tumor measurements on Day 12, L","Day 12, animal F3",0.30 cm
same,"Tumor measurements on Day 12, W","Day 12, animal F3",0.30 cm
same,Tumor volume,"Day 12, animal F4",0.1715 cm^3
same,"Tumor measurements on Day 12, L","Day 12, animal F4",0.70 cm
same,"Tumor measurements on Day 12, W","Day 12, animal F4",0.70 cm
same,Tumor volume,"Day 12, animal F5",0.1350 cm^3
same,"Tumor measurements on Day 12, L","Day 12, animal F5",0.3 cm
same,"Tumor measurements on Day 12, W","Day 12, animal F5",0.30 cm
same,Tumor volume,"Day 12, animal M1",0.1715 cm^3
same,"Tumor measurements on Day 12, L","Day 12, animal M1",0.70 cm
same,"Tumor measurements on Day 12, W","Day 12, animal M1",0.70 cm
same,Tumor volume,"Day 12, animal M2",0.3645 cm^3
same,"Tumor measurements on Day 12, L","Day 12, animal M2",0.90 cm
same,"Tumor measurements on Day 12, W","Day 12, animal M2",0.90 cm
same,Tumor volume,"Day 12, animal M3",0.5000 cm^3
same,"Tumor measurements on Day 12, L","Day 12, animal M3",1.00 cm
same,"Tumor measurements on Day 12, W","Day 12, animal M3",1.00 cm
same,Tumor volume,"Day 12, animal M4",0.5000 cm^3
same,"Tumor measurements on Day 12, L","Day 12, animal M4",1.00 cm
same,"Tumor measurements on Day 12, W","Day 12, animal M4",1.00 cm
same,Tumor volume,"Day 12, animal M5",0.0135 cm^3
same,"Tumor measurements on Day 12, L","Day 12, animal M5",0.30 cm
same,"Tumor measurements on Day 12, W","Day 12, animal M5",0.30 cm
same,Tumor Volume (cm^3) (Mean ± SD),Day 12,0.195 ± 0.1932 cm^3
same,"PI (TV), percent inhibition of tumor volume",Day 12,43.22%
same,"Tumor measurements on Day 15, L","Day 15, animal F1",0.80 cm
same,Tumor volumes on Day 15,"Day 15, animal F1",0.2560 cm^3
same,"Tumor measurements on Day 15, W","Day 15, animal F1",0.80 cm
same,"Tumor measurements on Day 15, L","Day 15, animal F2",0.50 cm
same,Tumor volumes on Day 15,"Day 15, animal F2",0.0625 cm^3
same,"Tumor measurements on Day 15, W","Day 15, animal F2",0.50 cm
same,"Tumor measurements on Day 15, L","Day 15, animal F3",0.60 cm
same,Tumor volumes on Day 15,"Day 15, animal F3",0.1080 cm^3
same,"Tumor measurements on Day 15, W","Day 15, animal F3",0.60 cm
same,"Tumor measurements on Day 15, L","Day 15, animal F4",0.70 cm
same,Tumor volumes on Day 15,"Day 15, animal F4",0.1715 cm^3
same,"Tumor measurements on Day 15, W","Day 15, animal F4",0.70 cm
same,"Tumor measurements on Day 15, L","Day 15, animal F5",0.60 cm
same,Tumor volumes on Day 15,"Day 15, animal F5",0.1080 cm^3
same,"Tumor measurements on Day 15, W","Day 15, animal F5",0.60 cm
same,"Tumor measurements on Day 15, L","Day 15, animal M1",1.00 cm
same,Tumor volumes on Day 15,"Day 15, animal M1",0.5000 cm^3
same,"Tumor measurements on Day 15, W","Day 15, animal M1",1.00 cm
same,"Tumor measurements on Day 15, L","Day 15, animal M2",1.20 cm
same,Tumor volumes on Day 15,"Day 15, animal M2",0.8640 cm^3
same,"Tumor measurements on Day 15, W","Day 15, animal M2",1.20 cm
same,"Tumor measurements on Day 15, L","Day 15, animal M3",1.00 cm
same,Tumor volumes on Day 15,"Day 15, animal M3",0.5000 cm^3
same,"Tumor measurements on Day 15, W","Day 15, animal M3",1.00 cm
same,"Tumor measurements on Day 15, L","Day 15, animal M4",1.20 cm
same,Tumor volumes on Day 15,"Day 15, animal M4",0.8640 cm^3
same,"Tumor measurements on Day 15, W","Day 15, animal M4",1.20 cm
same,"Tumor measurements on Day 15, L","Day 15, animal M5",0.90 cm
same,Tumor volumes on Day 15,"Day 15, animal M5",0.3645 cm^3
same,"Tumor measurements on Day 15, W","Day 15, animal M5",0.90 cm
same,Tumor Volume (cm^3) (Mean ± SD),Day 15,0.380 ± 0.2991 cm^3
same,"PI (TV), percent inhibition of tumor volume",Day 15,48.12%
